From ChEMBL document CHEMBL1201862, “PubChem BioAssay data set” (2004) come the findings set out here.

One data set addresses Beta-galactosidase (Escherichia coli, UniProt Q8VNN2). As to the kind of experiment: Dose response counterscreen for EBI2 assay utilizing the enzyme, b-galactosidase. Format: functional. In general terms: The purpose of a counterscreen is to sort out artefacts and off-target activity.
Data set [1] in a line: HEp-2 cell cytotoxicity, dose response, cytotoxicity control for RSV inhibitor project, HTS (AID 2410). The data set is classed as functional. Particulars: human respiratory syncytial virus.
Data set [2] concerns the target T1, RNA-binding protein pos-1 (Caenorhabditis elegans, UniProt G5EF15).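 Further: purified POS-1 fused to maltose binding protein made in E. coli; potency of compounds blocking POS-1 binding to fluorescent RNA.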
T1 sequence (G5EF15 whole entry): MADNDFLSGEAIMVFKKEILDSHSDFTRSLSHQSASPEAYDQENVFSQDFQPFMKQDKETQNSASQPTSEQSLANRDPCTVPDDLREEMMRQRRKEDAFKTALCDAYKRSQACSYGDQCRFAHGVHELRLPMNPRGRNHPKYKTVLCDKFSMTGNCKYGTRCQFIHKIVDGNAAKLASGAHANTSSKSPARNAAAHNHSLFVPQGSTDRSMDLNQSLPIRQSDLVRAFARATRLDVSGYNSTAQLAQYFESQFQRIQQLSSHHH
As to the kind of experiment: inhibitors of POS-1/mex-3 RNA binding, dose response, biochemical, fluorescence polarization (AID 1964). (In general: Fluorescence polarisation rises when a labelled molecule tumbles more slowly, as on binding a larger partner.)

Data set [3] deals with T2, Zinc finger protein mex-5 (Caenorhabditis elegans, UniProt Q9XUB2).
T2 sequence (Q9XUB2 whole entry): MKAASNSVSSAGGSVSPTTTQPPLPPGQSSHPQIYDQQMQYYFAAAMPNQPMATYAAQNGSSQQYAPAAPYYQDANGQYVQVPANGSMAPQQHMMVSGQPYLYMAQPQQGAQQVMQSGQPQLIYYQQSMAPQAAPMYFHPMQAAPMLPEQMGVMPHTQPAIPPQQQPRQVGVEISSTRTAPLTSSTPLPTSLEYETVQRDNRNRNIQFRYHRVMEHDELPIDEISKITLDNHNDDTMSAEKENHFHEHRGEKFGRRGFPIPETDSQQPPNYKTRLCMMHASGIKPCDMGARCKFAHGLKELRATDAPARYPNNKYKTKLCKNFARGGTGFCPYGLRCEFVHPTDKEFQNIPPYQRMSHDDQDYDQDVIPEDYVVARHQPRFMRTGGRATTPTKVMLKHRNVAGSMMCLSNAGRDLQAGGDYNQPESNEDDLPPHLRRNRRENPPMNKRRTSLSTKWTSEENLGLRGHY
Kind of data set: MEX-5/TCR-2 RNA interaction inhibitors, dose response, biochemical, C. elegans, fluorescence polarization (AID 1960).

The next data set deals with Large T antigen (Simian virus 40, UniProt P03070). Format: functional, Betapolyomavirus macacae.
Chain of Large T antigen (P03070 whole entry): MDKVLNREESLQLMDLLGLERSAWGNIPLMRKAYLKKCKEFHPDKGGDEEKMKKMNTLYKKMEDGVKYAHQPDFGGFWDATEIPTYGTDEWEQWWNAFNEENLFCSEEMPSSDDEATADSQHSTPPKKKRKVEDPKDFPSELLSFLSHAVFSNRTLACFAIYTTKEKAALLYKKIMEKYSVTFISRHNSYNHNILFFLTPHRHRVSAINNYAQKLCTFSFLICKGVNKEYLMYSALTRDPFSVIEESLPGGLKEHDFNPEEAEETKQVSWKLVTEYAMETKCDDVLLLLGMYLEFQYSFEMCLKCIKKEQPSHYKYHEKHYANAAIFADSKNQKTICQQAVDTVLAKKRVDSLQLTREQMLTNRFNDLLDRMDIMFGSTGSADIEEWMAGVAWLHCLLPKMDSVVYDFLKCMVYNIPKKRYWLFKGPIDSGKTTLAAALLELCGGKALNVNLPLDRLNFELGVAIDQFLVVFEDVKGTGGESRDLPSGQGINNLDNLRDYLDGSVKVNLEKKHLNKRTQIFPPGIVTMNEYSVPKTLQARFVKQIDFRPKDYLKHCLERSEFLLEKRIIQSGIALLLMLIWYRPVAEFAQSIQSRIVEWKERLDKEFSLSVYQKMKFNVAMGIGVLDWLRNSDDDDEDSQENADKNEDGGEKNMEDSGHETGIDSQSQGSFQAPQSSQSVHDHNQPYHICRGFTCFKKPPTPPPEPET
The target in data set [4] is Glucose-6-phosphate 1-dehydrogenase (Homo sapiens, UniProt P11413). As to the kind of experiment: human G6PD enzyme inhibitors, dose response, selectivity assay for P. falciparum G6PD inhibitor project, biochemical, fluorescence (AID 504792). The data set is classed as functional.
Chain of Glucose-6-phosphate 1-dehydrogenase (P11413 whole entry): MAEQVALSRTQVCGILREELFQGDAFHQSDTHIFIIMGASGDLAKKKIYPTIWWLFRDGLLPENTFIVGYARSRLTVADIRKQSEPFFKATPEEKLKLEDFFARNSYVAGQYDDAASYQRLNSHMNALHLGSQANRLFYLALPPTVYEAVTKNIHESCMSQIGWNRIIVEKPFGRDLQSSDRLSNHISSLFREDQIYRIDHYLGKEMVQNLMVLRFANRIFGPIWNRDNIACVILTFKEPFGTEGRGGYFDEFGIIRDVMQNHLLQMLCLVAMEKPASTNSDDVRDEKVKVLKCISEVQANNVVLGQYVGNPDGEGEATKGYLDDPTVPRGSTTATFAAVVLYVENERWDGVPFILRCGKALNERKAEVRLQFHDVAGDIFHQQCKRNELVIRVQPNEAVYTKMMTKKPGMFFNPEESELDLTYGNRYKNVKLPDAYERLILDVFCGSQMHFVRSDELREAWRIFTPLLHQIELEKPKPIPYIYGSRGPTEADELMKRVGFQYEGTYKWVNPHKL
In a further data set the target is Mu-type opioid receptor (Homo sapiens, UniProt P35372). The data set is classed as functional, cell-based.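 Further: U2OS cells with beta-arrestin recruitment to OPRM1 by beta-gal complementation.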
Chain of Mu-type opioid receptor (P35372 whole entry): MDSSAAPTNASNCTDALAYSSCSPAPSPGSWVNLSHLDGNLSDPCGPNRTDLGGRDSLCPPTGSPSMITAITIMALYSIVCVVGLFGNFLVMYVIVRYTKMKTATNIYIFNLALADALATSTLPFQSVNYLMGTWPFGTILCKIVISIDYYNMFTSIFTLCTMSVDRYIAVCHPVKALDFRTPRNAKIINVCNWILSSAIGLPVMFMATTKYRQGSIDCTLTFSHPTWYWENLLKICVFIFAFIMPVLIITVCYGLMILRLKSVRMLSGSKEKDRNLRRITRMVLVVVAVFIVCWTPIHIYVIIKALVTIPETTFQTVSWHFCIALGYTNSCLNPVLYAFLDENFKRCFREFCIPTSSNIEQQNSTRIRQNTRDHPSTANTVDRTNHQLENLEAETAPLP
Data set [5] concerns the target 5-hydroxytryptamine receptor 2A (Mus musculus, UniProt P35363). The data set is classed as functional, cell-based.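 Further: CHO-K1 cells with tagged receptor and beta-arrestin; agonist potency measured as compound-induced activation of the receptor.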
Another data set concerns the target Cytochrome P450 2C19 (Homo sapiens, UniProt P33261). Kind of data set: Cytochrome panel assay with activity outcomes. Panel member name: p450-cyp2c19 Compounds with AC50 equal or less than 10 uM are considered active. Format: functional.
The target in another data set is Cytochrome P450 2D6 (Homo sapiens, UniProt P10635).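 Further: CYP2D6 member of a cytochrome P450 panel assay.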
Chain of Cytochrome P450 2D6 (P10635 whole entry): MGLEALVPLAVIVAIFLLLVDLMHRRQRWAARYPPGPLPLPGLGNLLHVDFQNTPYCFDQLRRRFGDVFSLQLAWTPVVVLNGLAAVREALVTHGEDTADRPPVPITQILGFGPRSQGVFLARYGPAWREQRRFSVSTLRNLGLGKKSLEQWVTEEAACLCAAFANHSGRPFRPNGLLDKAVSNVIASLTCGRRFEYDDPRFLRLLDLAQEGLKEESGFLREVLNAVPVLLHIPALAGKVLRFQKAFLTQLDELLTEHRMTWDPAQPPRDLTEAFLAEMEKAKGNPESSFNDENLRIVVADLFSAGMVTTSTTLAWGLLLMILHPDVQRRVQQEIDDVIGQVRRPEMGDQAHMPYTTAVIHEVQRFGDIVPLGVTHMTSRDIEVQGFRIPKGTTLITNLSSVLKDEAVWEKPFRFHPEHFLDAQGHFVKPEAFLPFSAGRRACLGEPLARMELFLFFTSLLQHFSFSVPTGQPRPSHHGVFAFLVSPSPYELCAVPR
For a further data set, the target named is T3, Cytochrome P450 1A2 (Homo sapiens, UniProt P05177).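 Further: PubChem cytochrome P450 panel assay, CYP1A2 panel member.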
T3 sequence (P05177 whole entry): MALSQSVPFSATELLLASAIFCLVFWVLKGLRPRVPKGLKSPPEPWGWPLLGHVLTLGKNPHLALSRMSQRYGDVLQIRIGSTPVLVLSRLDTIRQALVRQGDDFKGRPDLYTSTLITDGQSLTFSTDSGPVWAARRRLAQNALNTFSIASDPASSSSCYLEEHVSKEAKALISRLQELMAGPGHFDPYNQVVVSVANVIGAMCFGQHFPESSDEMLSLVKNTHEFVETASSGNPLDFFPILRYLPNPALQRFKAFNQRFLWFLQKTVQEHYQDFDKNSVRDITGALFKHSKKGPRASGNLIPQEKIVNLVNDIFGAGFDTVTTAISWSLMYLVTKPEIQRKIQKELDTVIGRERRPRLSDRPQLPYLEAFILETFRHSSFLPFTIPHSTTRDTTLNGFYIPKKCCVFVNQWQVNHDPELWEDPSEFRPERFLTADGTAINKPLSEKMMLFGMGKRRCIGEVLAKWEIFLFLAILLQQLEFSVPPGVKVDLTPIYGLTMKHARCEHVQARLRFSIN

A further data set has as its target Cytochrome P450 2C9 (Homo sapiens, UniProt P11712).
Data set [6] concerns the target T4, Corticotropin-releasing factor receptor 2/Corticotropin-releasing factor-binding protein (Homo sapiens, UniProt P24387+Q13324).
T4 sequence (Q13324 whole entry): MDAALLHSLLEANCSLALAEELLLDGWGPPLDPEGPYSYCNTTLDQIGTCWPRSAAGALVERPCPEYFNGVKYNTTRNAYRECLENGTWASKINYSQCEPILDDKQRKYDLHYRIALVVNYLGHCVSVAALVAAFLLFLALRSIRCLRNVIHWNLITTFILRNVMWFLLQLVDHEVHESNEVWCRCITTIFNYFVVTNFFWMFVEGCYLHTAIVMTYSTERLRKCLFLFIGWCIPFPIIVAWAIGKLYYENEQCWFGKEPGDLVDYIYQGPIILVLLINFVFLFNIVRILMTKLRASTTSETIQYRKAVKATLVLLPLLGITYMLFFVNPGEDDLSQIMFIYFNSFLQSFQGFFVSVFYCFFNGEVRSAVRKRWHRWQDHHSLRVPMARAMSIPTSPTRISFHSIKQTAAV
T4 sequence (P24387 whole entry): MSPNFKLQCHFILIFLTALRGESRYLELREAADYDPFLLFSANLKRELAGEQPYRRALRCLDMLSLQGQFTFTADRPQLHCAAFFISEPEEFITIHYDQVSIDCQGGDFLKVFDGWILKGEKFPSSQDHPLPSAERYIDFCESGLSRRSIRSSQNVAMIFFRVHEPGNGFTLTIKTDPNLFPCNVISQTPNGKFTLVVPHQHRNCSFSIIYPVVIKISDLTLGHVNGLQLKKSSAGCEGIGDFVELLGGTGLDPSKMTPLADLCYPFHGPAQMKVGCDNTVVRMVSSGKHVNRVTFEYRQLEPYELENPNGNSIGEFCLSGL
As to the kind of experiment: Dose Response confirmation of uHTS hits for small molecule antagonists of the CRF-binding protein and CRF-R2 receptor complex. Format: functional. Particulars: read-out: IC50_Mean.

Data set [7] concerns the target T4, Corticotropin-releasing factor receptor 2/Corticotropin-releasing factor-binding protein. As to the kind of experiment: activators of CRF receptor 2 with binding protein – uHTS hits, confirmation (AID 602473). The data set is classed as functional. Particulars: read-out: EC50_Mean.
In data set [8] the target is T5, Replicative DNA helicase DnaB (Mycobacterium tuberculosis, UniProt P9WMR3).
T5 sequence (P9WMR3 whole entry): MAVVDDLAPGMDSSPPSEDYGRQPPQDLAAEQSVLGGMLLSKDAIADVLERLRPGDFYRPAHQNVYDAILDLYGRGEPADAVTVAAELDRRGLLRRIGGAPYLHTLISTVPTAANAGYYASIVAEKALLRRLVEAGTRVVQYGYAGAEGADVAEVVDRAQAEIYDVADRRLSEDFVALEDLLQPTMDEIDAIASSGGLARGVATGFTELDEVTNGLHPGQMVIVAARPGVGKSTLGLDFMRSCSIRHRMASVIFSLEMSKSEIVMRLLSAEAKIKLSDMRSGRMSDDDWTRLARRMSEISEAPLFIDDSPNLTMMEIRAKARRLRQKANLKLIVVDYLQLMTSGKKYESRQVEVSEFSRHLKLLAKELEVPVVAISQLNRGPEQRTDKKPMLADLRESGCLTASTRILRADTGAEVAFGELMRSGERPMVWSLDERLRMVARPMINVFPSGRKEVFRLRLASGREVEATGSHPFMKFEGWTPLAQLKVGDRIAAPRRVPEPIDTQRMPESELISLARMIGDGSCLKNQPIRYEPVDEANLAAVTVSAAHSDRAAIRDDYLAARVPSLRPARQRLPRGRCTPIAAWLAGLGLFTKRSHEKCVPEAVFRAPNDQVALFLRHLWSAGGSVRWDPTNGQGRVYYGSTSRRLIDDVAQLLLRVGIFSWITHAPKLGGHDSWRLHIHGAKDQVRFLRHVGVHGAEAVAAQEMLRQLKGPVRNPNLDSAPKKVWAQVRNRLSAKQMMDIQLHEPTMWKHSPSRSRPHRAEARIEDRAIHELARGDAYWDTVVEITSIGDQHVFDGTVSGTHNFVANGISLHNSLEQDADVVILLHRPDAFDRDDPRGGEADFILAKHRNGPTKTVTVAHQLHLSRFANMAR
As to the kind of experiment: DnaB intein splicing inhibitors, dose response, biochemical, cell-free fluorescence (AID 449749). The data set is classed as functional.

In the next data set the target is T6, Protein RecA (Mycobacterium tuberculosis, UniProt P9WHJ3).
T6 sequence (P9WHJ3 whole entry): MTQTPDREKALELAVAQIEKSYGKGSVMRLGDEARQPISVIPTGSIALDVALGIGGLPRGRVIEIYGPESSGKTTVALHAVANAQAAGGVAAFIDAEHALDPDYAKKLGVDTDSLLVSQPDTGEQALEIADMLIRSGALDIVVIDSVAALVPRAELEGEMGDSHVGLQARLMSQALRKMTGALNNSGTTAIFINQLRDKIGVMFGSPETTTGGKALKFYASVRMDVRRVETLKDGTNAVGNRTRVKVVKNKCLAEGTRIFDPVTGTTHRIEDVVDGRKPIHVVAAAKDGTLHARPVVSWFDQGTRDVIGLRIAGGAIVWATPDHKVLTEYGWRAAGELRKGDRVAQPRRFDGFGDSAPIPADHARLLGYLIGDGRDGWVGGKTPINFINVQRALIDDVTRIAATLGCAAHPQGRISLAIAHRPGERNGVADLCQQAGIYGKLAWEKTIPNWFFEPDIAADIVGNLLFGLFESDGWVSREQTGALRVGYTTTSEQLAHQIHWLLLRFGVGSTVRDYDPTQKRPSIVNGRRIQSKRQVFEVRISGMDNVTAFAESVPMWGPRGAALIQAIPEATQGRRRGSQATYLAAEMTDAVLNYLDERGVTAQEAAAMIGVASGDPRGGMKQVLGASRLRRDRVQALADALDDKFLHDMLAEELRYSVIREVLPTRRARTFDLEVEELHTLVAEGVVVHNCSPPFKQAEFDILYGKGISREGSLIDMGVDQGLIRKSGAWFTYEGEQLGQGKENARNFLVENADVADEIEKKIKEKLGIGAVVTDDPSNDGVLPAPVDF
Kind of data set: Fluorescence Cell-Free Homogeneous Dose Retest to Identify Inhibitors of RecA-Intein Splicing Activity. [Related pubchem assays (depositor defined):AID2097, AID2223, AID489010, AID492950]. Format: functional.

The source made the active and inactive calls. Bounds are passed on as bounds.

Chain of Beta-galactosidase (Q8VNN2 whole entry): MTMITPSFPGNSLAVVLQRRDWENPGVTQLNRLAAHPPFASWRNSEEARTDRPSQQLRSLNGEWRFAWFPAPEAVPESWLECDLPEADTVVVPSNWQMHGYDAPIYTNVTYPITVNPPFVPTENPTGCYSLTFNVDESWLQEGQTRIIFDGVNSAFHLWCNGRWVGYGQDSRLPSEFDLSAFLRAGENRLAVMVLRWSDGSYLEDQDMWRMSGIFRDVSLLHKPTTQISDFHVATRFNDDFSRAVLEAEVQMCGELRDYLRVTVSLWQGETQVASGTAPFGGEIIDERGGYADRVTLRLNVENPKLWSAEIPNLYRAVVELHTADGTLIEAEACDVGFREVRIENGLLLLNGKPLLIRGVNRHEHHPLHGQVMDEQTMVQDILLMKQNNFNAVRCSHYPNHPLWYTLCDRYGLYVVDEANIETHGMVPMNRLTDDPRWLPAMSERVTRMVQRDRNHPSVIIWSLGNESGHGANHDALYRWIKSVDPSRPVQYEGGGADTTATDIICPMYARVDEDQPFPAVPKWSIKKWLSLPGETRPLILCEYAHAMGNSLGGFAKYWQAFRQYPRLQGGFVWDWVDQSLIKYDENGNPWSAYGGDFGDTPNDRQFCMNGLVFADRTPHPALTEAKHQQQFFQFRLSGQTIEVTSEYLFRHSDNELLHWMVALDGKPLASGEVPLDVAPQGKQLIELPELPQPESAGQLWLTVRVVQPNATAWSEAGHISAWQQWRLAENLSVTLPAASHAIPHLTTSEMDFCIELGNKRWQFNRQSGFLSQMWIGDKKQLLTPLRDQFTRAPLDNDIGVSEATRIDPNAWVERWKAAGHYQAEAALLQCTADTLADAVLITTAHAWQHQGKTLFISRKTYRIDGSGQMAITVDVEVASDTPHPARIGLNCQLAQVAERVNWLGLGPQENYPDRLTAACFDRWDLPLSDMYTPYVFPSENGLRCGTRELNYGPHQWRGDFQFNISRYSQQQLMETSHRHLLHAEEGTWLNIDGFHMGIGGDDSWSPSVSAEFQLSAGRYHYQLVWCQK
Chain of 5-hydroxytryptamine receptor 2A (P35363 whole entry): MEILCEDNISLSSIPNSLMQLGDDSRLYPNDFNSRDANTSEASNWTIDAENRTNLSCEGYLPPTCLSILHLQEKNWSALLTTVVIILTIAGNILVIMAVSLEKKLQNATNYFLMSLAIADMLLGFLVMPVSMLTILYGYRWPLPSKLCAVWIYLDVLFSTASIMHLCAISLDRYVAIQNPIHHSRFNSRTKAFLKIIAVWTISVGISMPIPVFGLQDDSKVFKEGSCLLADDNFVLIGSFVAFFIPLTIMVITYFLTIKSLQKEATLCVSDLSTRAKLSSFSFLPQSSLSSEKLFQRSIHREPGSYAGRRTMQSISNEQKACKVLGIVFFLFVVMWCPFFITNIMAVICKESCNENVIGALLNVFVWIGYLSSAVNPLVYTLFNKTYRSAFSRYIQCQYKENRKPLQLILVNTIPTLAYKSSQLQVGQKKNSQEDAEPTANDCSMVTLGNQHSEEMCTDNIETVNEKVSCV
Chain of Cytochrome P450 2C9 (P11712 whole entry): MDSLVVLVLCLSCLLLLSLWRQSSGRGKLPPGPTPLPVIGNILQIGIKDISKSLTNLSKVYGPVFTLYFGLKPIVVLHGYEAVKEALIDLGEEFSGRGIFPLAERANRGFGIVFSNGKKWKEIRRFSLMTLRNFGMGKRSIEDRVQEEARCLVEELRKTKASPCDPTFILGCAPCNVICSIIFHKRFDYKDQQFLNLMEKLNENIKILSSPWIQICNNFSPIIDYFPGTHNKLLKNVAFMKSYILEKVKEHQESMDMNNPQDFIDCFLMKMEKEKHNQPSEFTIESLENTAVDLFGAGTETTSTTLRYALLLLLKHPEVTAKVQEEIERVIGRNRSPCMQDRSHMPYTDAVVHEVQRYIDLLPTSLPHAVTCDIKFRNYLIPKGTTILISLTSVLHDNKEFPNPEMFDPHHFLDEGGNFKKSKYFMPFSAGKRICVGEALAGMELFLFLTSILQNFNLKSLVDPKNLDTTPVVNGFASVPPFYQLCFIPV
Chain of Cytochrome P450 2C19 (P33261 whole entry): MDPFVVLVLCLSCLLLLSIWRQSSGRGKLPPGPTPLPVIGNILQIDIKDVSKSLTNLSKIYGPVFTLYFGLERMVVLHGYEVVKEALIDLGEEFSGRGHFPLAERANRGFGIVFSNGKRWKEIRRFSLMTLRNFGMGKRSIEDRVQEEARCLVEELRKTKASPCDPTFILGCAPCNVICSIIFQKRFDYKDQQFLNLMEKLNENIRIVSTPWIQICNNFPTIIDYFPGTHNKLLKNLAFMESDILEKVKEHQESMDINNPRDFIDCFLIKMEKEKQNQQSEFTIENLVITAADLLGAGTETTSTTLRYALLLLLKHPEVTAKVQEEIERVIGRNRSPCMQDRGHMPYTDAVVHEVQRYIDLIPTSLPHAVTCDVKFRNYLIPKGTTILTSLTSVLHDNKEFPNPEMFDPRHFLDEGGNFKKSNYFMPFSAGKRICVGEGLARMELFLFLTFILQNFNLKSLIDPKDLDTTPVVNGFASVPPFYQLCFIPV

For the compound `COc1ccc(-c2cc(C(=O)N3CCN(C(c4ccccc4)c4ccccc4)CC3)no2)cc1`, the IC50 on Beta-galactosidase is > 80 µM (inactive).
`CN1CCc2cc(O)cc3c2[C@H]1Cc1ccc(O)c(O)c1-3`: the cytotoxic concentration (CC50) in [1] is 16 µM (active). Moreover, the EC50 in [2] is 5.41 µM (active); in data set [3] it was 3.17 µM (active); at Mu-type opioid receptor it was 92.4 µM (inactive); in data set [5], 0.0112 µM (active). In addition, the IC50 on Large T antigen was 9.43 µM (active); in data set [4], 63 µM (inactive).
`CCS(=O)(=O)N1CCC(C(=O)NCCCN2CCN(c3ccccc3F)CC2)CC1`: the AC50 result at Cytochrome P450 2C19 was “inconclusive”; at Cytochrome P450 2D6, 15.8 µM (inconclusive); at Cytochrome P450 1A2 it was 1.26 µM (inconclusive); at Cytochrome P450 2C9, “inconclusive”. The values for the EC50 (on Mu-type opioid receptor; in data set [5]) were 92.5 µM (inactive) and 76.1 µM (inactive), respectively.
On to `CCC(C)c1ccc(NC(=S)Nc2ccc(OC)cc2)cc1` (configuration not stated), for which the values for the IC50 (in [6]; at Beta-galactosidase) were > 47.1 µM (inactive) and > 80 µM (inactive), respectively. Also, in [7], the EC50 was > 53 µM (inactive).
Take `Cc1ccc2[nH]c(C(=O)N3CCN(C(c4ccccc4)c4ccccc4)CC3)cc2c1`: at Beta-galactosidase, the IC50 was > 80 µM (inactive).
With `CC(C)C[C@H]1C(=O)N2CCC[C@H]2[C@]2(O)O[C@](NC(=O)[C@@H]3C=C4c5cccc6[nH]c(Br)c(c56)CC4N(C)C3)(C(C)C)C(=O)N12` (some centres not stated), in [8], the AC50 was > 380 µM (inactive). Moreover, the EC50 was > 380 µM (inactive) at Protein RecA, 92.5 µM (inactive) on Mu-type opioid receptor and 0.0038 µM (active) in [5].

The CC50 is the concentration at which the toxic effect on the cells reaches its halfway point. Broadly, the AC50 is the concentration at which the activity in the assay is half-maximal.
